Measurements as given in ChEMBL document CHEMBL5543142, “Discovery of YFJ-36: Design, Synthesis, and Antibacterial Activities of Catechol-Conjugated β-Lactams against Gram-Negative Bacteria” (J Med Chem, 2024).

What was measured:
Escherichia coli [1] = experiment: Antibacterial activity against ESBL-producing multidrug-resistant Escherichia coli clinical isolate 14-1 assessed as inhibition of bacterial growth incubated for 18 to 20 hrs by two fold serial dilution assay; type: functional; conditions: time 18-20 hrs
Escherichia coli [2] = experiment: Antibacterial activity against ESBL-producing multidrug-resistant Escherichia coli clinical isolate 14-2 assessed as inhibition of bacterial growth incubated for 18 to 20 hrs by two fold serial dilution assay; type: functional; conditions: time 18-20 hrs
Escherichia coli [3] = experiment: Antibacterial activity against ESBL-producing multidrug-resistant Escherichia coli clinical isolate 14-4 assessed as inhibition of bacterial growth incubated for 18 to 20 hrs by two fold serial dilution assay; type: functional; conditions: time 18-20 hrs
Klebsiella pneumoniae [4] = experiment: Antibacterial activity against KPC-2 producing multidrug-resistant Klebsiella pneumoniae clinical isolate 15-1 assessed as inhibition of bacterial growth incubated for 18 to 20 hrs by two fold serial dilution assay; type: functional; conditions: time 18-20 hrs
Klebsiella pneumoniae [5] = experiment: Antibacterial activity against KPC-2 producing multidrug-resistant Klebsiella pneumoniae clinical isolate 15-2 assessed as inhibition of bacterial growth incubated for 18 to 20 hrs by two fold serial dilution assay; type: functional; conditions: time 18-20 hrs
Klebsiella pneumoniae [6] = experiment: Antibacterial activity against KPC-2 producing multidrug-resistant Klebsiella pneumoniae clinical isolate 15-5 assessed as inhibition of bacterial growth incubated for 18 to 20 hrs by two fold serial dilution assay; type: functional; conditions: time 18-20 hrs
Escherichia coli [7] = experiment: Antibacterial activity against Escherichia coli ATCC35218 assessed as inhibition of bacterial growth incubated for 18 to 20 hrs by two fold serial dilution assay; type: functional; conditions: time 18-20 hrs
Pseudomonas aeruginosa [8] = experiment: Antibacterial activity against IMP-4 producing multidrug-resistant Pseudomonas aeruginosa clinical isolate 17-13 assessed as inhibition of bacterial growth incubated for 18 to 20 hrs by two fold serial dilution assay; type: functional; conditions: time 18-20 hrs
Pseudomonas aeruginosa [9] = experiment: Antibacterial activity against IMP-4 producing multidrug-resistant Pseudomonas aeruginosa clinical isolate 17-1 assessed as inhibition of bacterial growth incubated for 18 to 20 hrs by two fold serial dilution assay; type: functional; conditions: time 18-20 hrs
Pseudomonas aeruginosa [10] = experiment: Antibacterial activity against IMP-4 producing multidrug-resistant Pseudomonas aeruginosa clinical isolate 19-17 assessed as inhibition of bacterial growth incubated for 18 to 20 hrs by two fold serial dilution assay; type: functional; conditions: time 18-20 hrs
Acinetobacter baumannii [11] = experiment: Antibacterial activity against OXA-23 producing multidrug-resistant Acinetobacter baumannii clinical isolate 17-2 assessed as inhibition of bacterial growth incubated for 18 to 20 hrs by two fold serial dilution assay; type: functional; conditions: time 18-20 hrs
Acinetobacter baumannii [12] = experiment: Antibacterial activity against OXA-23 producing multidrug-resistant Acinetobacter baumannii clinical isolate 17-3 assessed as inhibition of bacterial growth incubated for 18 to 20 hrs by two fold serial dilution assay; type: functional; conditions: time 18-20 hrs
Pseudomonas aeruginosa [13] = experiment: Antibacterial activity against IMP-4 producing multidrug-resistant Pseudomonas aeruginosa clinical isolate 19-5 assessed as inhibition of bacterial growth incubated for 18 to 20 hrs by two fold serial dilution assay; type: functional; conditions: time 18-20 hrs
Pseudomonas aeruginosa [14] = experiment: Antibacterial activity against IMP-4 producing multidrug-resistant Pseudomonas aeruginosa clinical isolate 19-1 assessed as inhibition of bacterial growth incubated for 18 to 20 hrs by two fold serial dilution assay; type: functional; conditions: time 18-20 hrs
Acinetobacter baumannii [15] = experiment: Antibacterial activity against OXA-23 producing multidrug-resistant Acinetobacter baumannii clinical isolate 17-5 assessed as inhibition of bacterial growth incubated for 18 to 20 hrs by two fold serial dilution assay; type: functional; conditions: time 18-20 hrs
Acinetobacter baumannii [16] = experiment: Antibacterial activity against OXA-23 producing multidrug-resistant Acinetobacter baumannii clinical isolate 17-6 assessed as inhibition of bacterial growth incubated for 18 to 20 hrs by two fold serial dilution assay; type: functional; conditions: time 18-20 hrs
Acinetobacter baumannii [17] = experiment: Antibacterial activity against OXA-23 producing multidrug-resistant Acinetobacter baumannii clinical isolate 17-7 assessed as inhibition of bacterial growth incubated for 18 to 20 hrs by two fold serial dilution assay; type: functional; conditions: time 18-20 hrs
Acinetobacter baumannii [18] = experiment: Antibacterial activity against OXA-23 producing multidrug-resistant Acinetobacter baumannii clinical isolate 17-8 assessed as inhibition of bacterial growth incubated for 18 to 20 hrs by two fold serial dilution assay; type: functional; conditions: time 18-20 hrs
Klebsiella pneumoniae [19] = experiment: Antibacterial activity against KPC-2 producing multidrug-resistant Klebsiella pneumoniae clinical isolate 15-3 assessed as inhibition of bacterial growth incubated for 18 to 20 hrs by two fold serial dilution assay; type: functional; conditions: time 18-20 hrs
Acinetobacter baumannii [20] = experiment: Antibacterial activity against OXA-23 producing multidrug-resistant Acinetobacter baumannii clinical isolate 15-1 assessed as inhibition of bacterial growth incubated for 18 to 20 hrs by two fold serial dilution assay; type: functional; conditions: time 18-20 hrs
Acinetobacter baumannii [21] = experiment: Antibacterial activity against OXA-23 producing multidrug-resistant Acinetobacter baumannii clinical isolate 15-2 assessed as inhibition of bacterial growth incubated for 18 to 20 hrs by two fold serial dilution assay; type: functional; conditions: time 18-20 hrs
Acinetobacter baumannii [22] = experiment: Antibacterial activity against OXA-23 producing multidrug-resistant Acinetobacter baumannii clinical isolate 15-3 assessed as inhibition of bacterial growth incubated for 18 to 20 hrs by two fold serial dilution assay; type: functional; conditions: time 18-20 hrs
Acinetobacter baumannii [23] = experiment: Antibacterial activity against OXA-23 producing multidrug-resistant Acinetobacter baumannii clinical isolate 15-4 assessed as inhibition of bacterial growth incubated for 18 to 20 hrs by two fold serial dilution assay; type: functional; conditions: time 18-20 hrs
Acinetobacter baumannii [24] = experiment: Antibacterial activity against OXA-23 producing multidrug-resistant Acinetobacter baumannii clinical isolate 15-5 assessed as inhibition of bacterial growth incubated for 18 to 20 hrs by two fold serial dilution assay; type: functional; conditions: time 18-20 hrs
[25] = AUC (0 to infinity) in ICR mouse at 20 mg/kg,iv administration measured upto 6 hrs by LC-MS/MS analysis; type: ADME, organism-based; conditions: in vivo
[26] = Clearance in ICR mouse at 20 mg/kg,iv administration measured upto 6 hrs by LC-MS/MS analysis; type: ADME, organism-based; conditions: in vivo
[27] = Half life in ICR mouse at 20 mg/kg,iv administration measured upto 6 hrs by LC-MS/MS analysis; type: ADME, organism-based; conditions: in vivo
[28] = MRT in ICR mouse at 20 mg/kg,iv administration measured upto 6 hrs by LC-MS/MS analysis; type: ADME, organism-based; conditions: in vivo
[29] = Volume of distribution at steady state in ICR mouse at 20 mg/kg,iv administration measured upto 6 hrs by LC-MS/MS analysis; type: ADME, organism-based; conditions: in vivo, read-out: Vdss

Row | Structure (SMILES) | MIC (Escherichia coli [1]) [µg/mL] | MIC (Escherichia coli [2]) [µg/mL] | MIC (Escherichia coli [3]) [µg/mL] | MIC (Klebsiella pneumoniae [4]) [µg/mL] | MIC (Klebsiella pneumoniae [5]) [µg/mL] | MIC (Klebsiella pneumoniae [6]) [µg/mL] | MIC (Escherichia coli [7]) [µg/mL] | MIC (Pseudomonas aeruginosa [8]) [µg/mL] | MIC (Pseudomonas aeruginosa [9]) [µg/mL] | MIC (Pseudomonas aeruginosa [10]) [µg/mL] | MIC (Acinetobacter baumannii [11]) [µg/mL] | MIC (Acinetobacter baumannii [12]) [µg/mL] | MIC (Pseudomonas aeruginosa [13]) [µg/mL] | MIC (Pseudomonas aeruginosa [14]) [µg/mL] | MIC (Klebsiella pneumoniae [19]) [µg/mL] | MIC (Acinetobacter baumannii [20]) [µg/mL] | MIC (Acinetobacter baumannii [21]) [µg/mL] | MIC (Acinetobacter baumannii [22]) [µg/mL] | MIC (Acinetobacter baumannii [23]) [µg/mL] | MIC (Acinetobacter baumannii [24]) [µg/mL] | further results
1 | CC(C)[C@H](O/N=C(\C(=O)N[C@@H]1C(=O)N2C(C(=O)O)=C(CSCCNC(=O)c3ccc(O)c(O)c3Cl)CS[C@H]12)c1csc(N)n1)C(=O)O.O=C(O)C(F)(F)F | 0.125 | 1 | 0.125 | 1 | 1 | 4 | 0.06 | 0.125 | 8 | 0.25 | 4 | 4 | 0.5 | 1 | 4 | – | – | – | – | – | MIC (Acinetobacter baumannii [15]): 4 µg/mL; MIC (Acinetobacter baumannii [16]): 16 µg/mL; MIC (Acinetobacter baumannii [17]): 8 µg/mL; MIC (Acinetobacter baumannii [18]): 4 µg/mL
2 | Nc1nc(/C(=N/OC(C(=O)O)C2CCCCC2)C(=O)N[C@@H]2C(=O)N3C(C(=O)O)=C(CSCCNC(=O)c4ccc(O)c(O)c4Cl)CS[C@H]23)cs1.O=C(O)C(F)(F)F (some centres undefined) | 0.125 | 1 | 0.125 | 4 | 2 | 1 | 0.125 | 1 | 4 | 0.5 | – | – | – | – | 2 | 8 | 4 | 8 | 8 | 4 | AUC(0-inf) [25]: 3440 ng·h/mL; clearance [26]: 90.1 mL/min/kg; half-life [27]: 0.7 h; MRT [28]: 0.3 h; Vd [29]: 1.73 L/kg
3 | CC(C)(C)C1CCC(C(O/N=C(\C(=O)N[C@@H]2C(=O)N3C(C(=O)O)=C(CSCCNC(=O)c4ccc(O)c(O)c4Cl)CS[C@H]23)c2csc(N)n2)C(=O)O)CC1.O=C(O)C(F)(F)F (some centres undefined) | 0.125 | 0.5 | 0.25 | 1 | 1 | 1 | 0.06 | 4 | 4 | 0.5 | – | – | – | – | 2 | 8 | 8 | 8 | 8 | 8 | AUC(0-inf) [25]: 6670 ng·h/mL; clearance [26]: 58 mL/min/kg; half-life [27]: 4.99 h; MRT [28]: 1.72 h; Vd [29]: 7.23 L/kg
4 | CC(C)[C@@H](O/N=C(\C(=O)N[C@@H]1C(=O)N2C(C(=O)O)=C(CSCCNC(=O)c3ccc(O)c(O)c3Cl)CS[C@H]12)c1csc(N)n1)C(=O)O.O=C(O)C(F)(F)F | 0.125 | 1 | 0.125 | 0.25 | 0.25 | 0.25 | 0.5 | 0.06 | 32 | 0.25 | 1 | 0.5 | 2 | 2 | 2 | – | – | – | – | – | MIC (Acinetobacter baumannii [15]): 2 µg/mL; MIC (Acinetobacter baumannii [16]): 2 µg/mL; MIC (Acinetobacter baumannii [17]): 4 µg/mL; MIC (Acinetobacter baumannii [18]): 1 µg/mL
5 | Nc1nc(/C(=N/OC(C(=O)O)C2CCC(F)(F)CC2)C(=O)N[C@@H]2C(=O)N3C(C(=O)O)=C(CSCCNC(=O)c4ccc(O)c(O)c4Cl)CS[C@H]23)c(Br)s1.O=C(O)C(F)(F)F (some centres undefined) | 0.125 | 0.125 | 0.06 | 0.5 | 1 | 0.25 | 0.06 | 0.06 | – | 0.125 | 0.125 | 4 | 0.25 | 8 | 0.5 | 2 | 0.5 | 1 | 4 | 4 | AUC(0-inf) [25]: 3910 ng·h/mL; clearance [26]: 92.9 mL/min/kg; half-life [27]: 3.33 h; MRT [28]: 1.61 h; Vd [29]: 9.48 L/kg
